Experimental data from patent US20230233671A1, “RNA MOLECULES” (Pfizer Inc., priority 2021, published 2023).

Legend:
Type in all cases: in vivo
VZV gE [1] = assay: Serum VZV gE-binding IgG levels (LUMINEX) in LAV-experienced C57BL/6 mice; details: for Day 35 (GMC), serum gE-binding IgG: C57BL/6 mice, LAV SQ Day 0, Day 35 prior to immunization; for Day 63 (GMC), serum gE-binding IgG / Day 76 (GMC), serum gE-binding IgG: LAV-experienced C57BL/6 mice; for Day 63 (GMC), serum gE-binding IgG: Day 63 (1 month post dose 1); for Day 76 (GMC), serum gE-binding IgG: Day 76 (13 days post dose 2/boost)
Experimental: Serum IgG levels were determined for each mouse sample using the LUMINEX® platform. Briefly, diluted sera were incubated in the dark in the presence of blocked, recombinant gE protein-bound single-plex microspheres (MAGPLEX® Microspheres, region 79) for 20±4 hours at 2-8° C., 300 rpm. A secondary antibody solution (R-phycoerythrin Conjugated AffiniPure F(ab)′2 Fragment Goat Anti-Mouse IgG F(ab)′2 Fragment Specific) was prepared at 1:250 in LXA-16 buffer. Plates were washed three times in LXA-20 (EIA-7), and secondary antibody was applied to each well of the assay plate. Plates were covered with aluminum sealers and incubated for 2 hours±15 minutes at 25° C., 300 rpm. Plates were washed three times with LXA-20 (EIA-7) buffer, and 100 ul LXA-20 was applied to each well. Plates were covered with aluminum sealers and incubated at 25° C., 300 rpm for a minimum of 4 minutes, or up to 2 hours. Plates were analyzed on a BIO-PLEX® Reader. IgG titers for Day, 28, 34 and 42 are show in Table 10 and FIGS. 17-19.
(§1) VZV RNA-LNP vaccines were tested for their ability to induce IgG and T cell responses in C57BL/6 mice. 15 mice per group were immunized in accordance with the schedule and specification in Table 11. Briefly, 10 or 15 mice per group were primed subcutaneously (SQ) on Day 0 with a live-attenuated varicella (LAV) vaccine (VARIVAX®, Merck) using a full human dose per mouse (1350 pfu), immunized intramuscularly (IM) on Day 35 day and boosted on Day 63. The “infection” with a LAV vaccine mimics exposure to VZV that humans receive when infected with VZV as children and develop chickenpox.
(§2) Mice immunized with SHINGRIX® received 1, 2.5, or 5 μg, corresponding to 1/50, 1/20, and 1/10 of the human clinical dose, respectively; mice immunized with gE_WT CO2 received 0.5 or 1 μg VZV RNA-LNP; mice immunized with ms5 CO1 received 0.5 or 1 ug VZV RNA-LNP; mice immunized with ms6 CO2 received 0.5 or 1 ug VZV RNA-LNP; and mice immunized with lyophilized gE_WT CO2 received 0.5 or 1 ug VZV RNA-LNP. Saline was administered on Day 35 and 63 to a negative control group. Sera was collected from mice on Day 35, 63 and 76 for characterization of VZV gE-binding IgG levels (LUMINEX® analyses). Spleens were harvested on Day 48 (13 days post dose 1 for selected groups) and Day 76 for cellular analysis (T cell and B cell responses).
Serum IgG levels were determined for each mouse sample using the LUMINEX® platform (described herein). IgG titers for Day 35, 63 (1 month post dose 1) and 76 (13 days pose dose 2) are show in Table 12 and FIGS. 22-24. Each data point in the figures is a result from an individual animal; each horizontal lines represents the geometric mean IgG concentration (μg/ml) and whiskers represent the 95% confidence interval.

VZV gE [2] = assay: IFN-γ ELISpot of gE peptide-stimulated splenocytes from LAV-experienced C57BL/6 mice; details: Day 48 (13 days post dose 1), 1 μg IM Day 35
Experimental: VZV RNA-LNP vaccines were tested for their ability to induce IgG and T cell responses in C57BL/6 mice. 15 mice per group were immunized in accordance with the schedule and specification in Table 11. Briefly, 10 or 15 mice per group were primed subcutaneously (SQ) on Day 0 with a live-attenuated varicella (LAV) vaccine (VARIVAX®, Merck) using a full human dose per mouse (1350 pfu), immunized intramuscularly (IM) on Day 35 day and boosted on Day 63. The “infection” with a LAV vaccine mimics exposure to VZV that humans receive when infected with VZV as children and develop chickenpox. […]
Vaccine-induced T cell response was measured following ex vivo stimulation of splenocytes with gE peptide pool (2 μg/mL of each peptide) by ELISpot and Intracellular Cytokine Staining (ICS) assay (described herein). […] T cell IFN-γ response was measured using Mabtech Mouse IFN-γ ELISpot PLUS kit (ALP) and expressed as spot forming cells (SFC) per million cells. The ICS assay measured IFN-γ-expressing cells within CD4^+ and CD8^+ T cells expressed as percentage of IFN-γ^+ cells within CD4^+ and CD8^+ T cells. […]

VZV gE [3] = assay: Frequency of gE-specific IgG+ B cells in splenocytes of LAV-experienced C57BL/6 mice (flow cytometry); details: percentage of IgG-expressing B cells
Experimental: as §1, §2
Vaccine-induced B cell response was evaluated by measuring the frequencies of VZV gE-specific B cells in the spleen. Wild type gE protein ectodomain with streptag was coupled to streptavidin (SA)-fluorochromes PE and APC, both from BioLegend in the ratio of 2:1 in separate tubes for 1 hour at room temperature (RT) at 20× of desired staining concentration (10 μg/mL for each protein). Each of the SA-fluorochrome-coupled spike proteins were pooled and diluted to 1× using flow cytometry (FC) buffer (2% FBS/PBS) to generate B-cell probes to identify gE-specific B cells. Single cell suspensions of splenocytes (5×10^6 cells per well) were first washed in PBS and stained with eFluor 506 Fixable Viability dye for 10 minutes at RT to identify live from dead cells. Following washes in FC buffer, cells were incubated with 50 μL/well of 1×B-cell probe for 30 to 45 minutes and then washed to remove unbound probes. Cells were surface stained with a cocktail of flow cytometry antibodies (CD19, IgD, IgM, IgD, All from BioLegend) to identify B cell surface phenotypes. Following washing, cells were fixed using BD Fixation buffer and suspended in FC buffer. Cells were acquired on LSR Fortessa and data analyzed by FlowJo (10.7.1). The results of gE-specific B cells were expressed as the percentage of IgG-expressing B cells.

[4] = Day 48 (13 days post dose 1), 1 μg IM Day 35
[5] = Day 76 (13 days post dose 2/boost), 1 μg IM Days 35 and 63

Row | Substance | Day 35 (GMC), serum gE-binding IgG (VZV gE [1]; 0.5 μg group) [µg/mL] | Day 35 (GMC), serum gE-binding IgG (VZV gE [1]; 1 μg group) [µg/mL] | Day 63 (GMC), serum gE-binding IgG (VZV gE [1]; 0.5 μg IM Day 35) [µg/mL] | Day 76 (GMC), serum gE-binding IgG (VZV gE [1]; 0.5 μg IM Days 35 and 63) [µg/mL] | Day 63 (GMC), serum gE-binding IgG (VZV gE [1]; 1 μg IM Day 35) [µg/mL] | Day 76 (GMC), serum gE-binding IgG (VZV gE [1]; 1 μg IM Days 35 and 63) [µg/mL] | gE-specific IFN-γ+ cells (ELISpot) (VZV gE [2]) [SFC per million cells] | gE-specific IgG+ B cells (VZV gE [3]; [4]) [%] | gE-specific IgG+ B cells (VZV gE [3]; [5]) [%]
1 | ms5 CO1: modRNA construct, ORF SEQ ID NO: 153, VZV gE with deletion of aa 582-623 | 0.11 | 0.14 | 41 | 556 | 76 | 530 | 1068 | 4.14 | 2.19
2 | ms6 CO2: modRNA construct, ORF SEQ ID NO: 157, VZV gE with deletion of aa 539-623, secreted | 0.28 | 0.19 | 50 | 464 | 58 | 723 | 150 | 1.85 | 1.38
